Patent US20250171495A1, “MUTLI-TARGETED SERINE PROTEASE INHIBITORS FOR TREATMENT OF CANCER AND VIRAL INFECTION” (Washington University, priority 2023, published 2025)
pIC50: −log10 of the molar value. Like-named read-outs stand apart in the source and are kept apart here.

Assays:
Assay type in all cases: biochemical
hepsin = target: T1, hepsin (Homo sapiens, UniProt P05981); assay: Fluorogenic kinetic enzyme inhibitor assay, hepsin
T1 construct: purchased R&D Systems 4776-SE-010

HGFA = target: T2, HGFA (Homo sapiens, UniProt Q04756); assay: Fluorogenic kinetic enzyme inhibitor assay, HGFA; settings: read-out: HGFA IC50
T2 construct: purchased R&D Systems 1514-SE-010
T2 sequence (Q04756 408-655 limits assumed): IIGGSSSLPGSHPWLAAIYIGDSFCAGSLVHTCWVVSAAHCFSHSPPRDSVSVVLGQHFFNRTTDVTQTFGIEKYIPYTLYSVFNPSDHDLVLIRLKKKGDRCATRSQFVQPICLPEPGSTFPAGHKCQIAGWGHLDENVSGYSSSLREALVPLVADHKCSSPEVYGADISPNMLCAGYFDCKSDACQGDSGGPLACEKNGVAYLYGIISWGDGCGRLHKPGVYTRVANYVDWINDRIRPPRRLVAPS
T2 sequence (Q04756 373-407 partner limits assumed): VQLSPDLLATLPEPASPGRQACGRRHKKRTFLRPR

matriptase = target: T3, matriptase (Homo sapiens, UniProt Q9Y5Y6); assay: Fluorogenic kinetic enzyme inhibitor assay, matriptase
T3 construct: purchased R&D Systems 3946-SEB-010
T3 sequence (Q9Y5Y6 615-855 limits assumed): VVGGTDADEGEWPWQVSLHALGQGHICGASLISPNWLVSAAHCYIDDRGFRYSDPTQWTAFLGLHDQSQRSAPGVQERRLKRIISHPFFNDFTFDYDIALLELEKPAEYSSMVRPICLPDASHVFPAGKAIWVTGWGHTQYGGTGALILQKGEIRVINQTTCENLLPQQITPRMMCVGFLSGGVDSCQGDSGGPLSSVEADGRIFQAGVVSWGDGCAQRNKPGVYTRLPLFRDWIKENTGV

TMPRSS2 = TMPRSS2 (Homo sapiens, UniProt O15393); assay: Fluorogenic kinetic enzyme inhibitor assay, TMPRSS2; parameters: purchased Cusabio Technology CSB-YP023924HU
Sequence of TMPRSS2 (O15393 106-492 limits assumed): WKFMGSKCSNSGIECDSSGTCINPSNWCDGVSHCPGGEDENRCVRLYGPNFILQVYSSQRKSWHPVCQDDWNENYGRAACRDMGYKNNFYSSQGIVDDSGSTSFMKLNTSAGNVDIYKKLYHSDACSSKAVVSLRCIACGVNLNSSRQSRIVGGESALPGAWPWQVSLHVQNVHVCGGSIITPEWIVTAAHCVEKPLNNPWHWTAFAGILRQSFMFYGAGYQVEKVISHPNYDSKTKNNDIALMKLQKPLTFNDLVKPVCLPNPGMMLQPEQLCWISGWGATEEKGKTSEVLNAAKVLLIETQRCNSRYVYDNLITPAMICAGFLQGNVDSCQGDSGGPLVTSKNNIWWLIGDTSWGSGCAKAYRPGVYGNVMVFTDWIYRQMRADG

T1 sequence (P05981 163-417 limits assumed): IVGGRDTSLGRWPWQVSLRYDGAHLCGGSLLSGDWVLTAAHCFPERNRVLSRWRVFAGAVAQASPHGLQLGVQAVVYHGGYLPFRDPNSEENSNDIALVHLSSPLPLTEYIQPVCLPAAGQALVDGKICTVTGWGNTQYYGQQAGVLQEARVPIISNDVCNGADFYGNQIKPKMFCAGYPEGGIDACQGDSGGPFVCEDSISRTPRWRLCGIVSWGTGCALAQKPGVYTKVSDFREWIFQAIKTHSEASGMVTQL
T1 sequence (P05981 1-162 partner limits assumed): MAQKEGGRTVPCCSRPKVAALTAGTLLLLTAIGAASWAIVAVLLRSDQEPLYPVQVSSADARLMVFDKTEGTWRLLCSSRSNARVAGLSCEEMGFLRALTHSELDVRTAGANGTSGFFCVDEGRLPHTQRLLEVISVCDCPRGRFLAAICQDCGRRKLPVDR

SMILES | pIC50 (hepsin; 30 min incubation, Boc-QAR-AMC at Km, read-out: Hepsin IC50) | pIC50 (HGFA) | pIC50 (matriptase; read-out: Matriptase IC50) | pIC50 (hepsin; read-out: Hepsin IC50) | pIC50 (TMPRSS2; read-out: TMPRSS2 IC50) | pIC50 (matriptase) | pIC50 (hepsin) | pIC50 (TMPRSS2)
CC(=O)N[C@H]1Cc2ccc(cc2)OCCCC[C@@H](C(=O)N[C@@H](CCCNC(=N)N)C(=O)c2nc3ccccc3s2)NC(=O)[C@@H](Cc2c[nH]c3ccccc23)NC1=O [8b] | 9.27 | 8.48 |  |  |  |  |  | 
CC(=O)N[C@@H](Cc1cncn1COCc1ccccc1)C(=O)N[C@@H](CCC(C)C)C(=O)N[C@@H](CCCNC(=N)N)C(=O)c1nc2ccccc2s1 [JH1142-2, N-[(S)-1-[(1,3-benzothiazol-2-yl)carbonyl]-4-guanidinobutyl](S)-2-[(S)-2-acetylamino-3-{1-[(benzyloxy)methyl]-5-imidazolyl}propionylamino]-5-methylhexanamide] |  | 6.88 | 8.94 | 9.03 |  |  |  | 
N=C(N)NCCC[C@H](NC(=O)[C@H](Cc1cccc(Cl)c1)NC(=O)OCC1c2ccccc2-c2ccccc21)C(=O)c1nc2ccccc2s1 [MF1134, (S)-2-(m-chlorophenyl)-1-[N-(S)-1-[(1,3-benzothiazol-2-yl)carbonyl]-4-guanidinobutylcarbamoyl] ethyl (9H-fluoren-9-yl)methanecarbamate] |  |  | < 4.70 | 5.79 | 8.20 |  |  | 
C=CCOC(=O)CC[C@H](NC(=O)[C@H](CCC(C)C)NC(C)=O)C(=O)N[C@@H](Cc1ccc(F)cc1)C(=O)N[C@@H](CCCNC(=N)N)C(=O)c1nc2ccccc2s1 [MF1140, allyl (S)-4-[(S)-1-acetylamino-4-methylpentylcarbonylamino]-4-[N-(S)-2-(p-fluorophenyl)-1-[N-(S)-1-[(1,3-benzothiazol-2-yl)carbonyl]-4-guanidinobutylcarbamoyl]ethylcarbamoyl]butyrate] |  |  |  |  |  | 8.54 | 7.96 | 12.00
N=C(N)NCCC[C@H](NC(=O)[C@H](Cc1cccc(F)c1)NC(=O)OCC1c2ccccc2-c2ccccc21)C(=O)c1nc2ccccc2s1 [MF1141, (S)-2-(m-fluorophenyl)-1-[N-(S)-1-[(1,3-benzothiazol-2-yl)carbonyl]-4-guanidinobutylcarbamoyl] ethyl (9H-fluoren-9-yl)methanecarbamate] |  |  | 5.94 | 6.46 | 7.89 |  |  | 
N=C(N)NCCC[C@H](NC(=O)[C@H](CC1CCCCC1)NC(=O)OCC1c2ccccc2-c2ccccc21)C(=O)c1nc2ccccc2s1 [MF1142, (S)-2-cyclohexyl-1-[N-(S)-1-[(1,3-benzothiazol-2-yl)carbonyl]-4-guanidinobutylcarbamoyl] ethyl (9H-fluoren-9-yl)methanecarbamate] |  |  | 5.55 | 5.62 | 10.40 |  |  | 
N=C(N)NCCC[C@H](NC(=O)[C@H](Cc1cccc2ccccc12)NC(=O)OCC1c2ccccc2-c2ccccc21)C(=O)c1nc2ccccc2s1 [MF1144, (S)-2-(1-naphthyl)-1-[N-(S)-1-[(1,3-benzothiazol-2-yl)carbonyl]-4-guanidinobutylcarbamoyl] ethyl (9H-fluoren-9-yl)methanecarbamate] |  |  | < 4.70 | 5.85 | < 4.70 |  |  | 
N=C(N)NCCC[C@H](NC(=O)[C@H](CCC1CCCCC1)NC(=O)OCC1c2ccccc2-c2ccccc21)C(=O)c1nc2ccccc2s1 [MF1149, (S)-3-cyclohexyl-1-[N-(S)-1-[(1,3-benzothiazol-2-yl)carbonyl]-4-guanidinobutylcarbamoyl] propyl (9H-fluoren-9-yl)methanecarbamate] |  |  | 7.74 | 5.64 | < 4.70 |  |  | 
CCC[C@H](NC(=O)OCC1c2ccccc2-c2ccccc21)C(=O)N[C@@H](CCCNC(=N)N)C(=O)c1nc2ccccc2s1 [MF1150, (S)-1-[N-(S)-1-[(1,3-benzothiazol-2-yl)carbonyl]-4-guanidinobutylcarbamoyl] butyl (9H-fluoren-9-yl)methanecarbamate] |  |  | 8.26 | 7.53 | 7.72 |  |  | 
N=C(N)NCCC[C@H](NC(=O)[C@H](CCc1ccccc1)NC(=O)OCC1c2ccccc2-c2ccccc21)C(=O)c1nc2ccccc2s1 [MF1152, (S)-1-[N-(S)-1-[(1,3-benzothiazol-2-yl)carbonyl]-4-guanidinobutylcarbamoyl]-3-phenylpropyl (9H-fluoren-9-yl)methanecarbamate] |  |  | 7.32 | < 4.70 | 6.70 |  |  | 
N=C(N)NCCC[C@H](NC(=O)[C@H](Cc1cn(Cc2ccccc2)cn1)NC(=O)OCC1c2ccccc2-c2ccccc21)C(=O)c1nc2ccccc2s1 [MF1158, (S)-2-(1-benzyl-4-imidazolyl)-1-[N-(S)-1-[(1,3-benzothiazol-2-yl)carbonyl]-4-guanidinobutylcarbamoyl] ethyl (9H-fluoren-9-yl)methanecarbamate] |  |  | 7.40 | < 4.70 | 7.16 |  |  | 
N=C(N)NCCC[C@H](NC(=O)[C@H](CCCCOCc1ccccc1)NC(=O)OCC1c2ccccc2-c2ccccc21)C(=O)c1nc2ccccc2s1 [MF1165, (S)-5-(benzyloxy)-1-[N-(S)-1-[(1,3-benzothiazol-2-yl)carbonyl]-4-guanidinobutylcarbamoyl] pentyl (9H-fluoren-9-yl)methanecarbamate] |  |  | 7.51 | 10.00 | 9.06 |  |  | 
N=C(N)NCCC[C@H](NC(=O)[C@H](Cc1csc2ccccc12)NC(=O)OCc1ccccc1)C(=O)c1nc2ccccc2s1 [MF1168, (S)-2-(1-benzothiophen-3-yl)-1-[N-(S)-1-[(1,3-benzothiazol-2-yl)carbonyl]-4-guanidinobutylcarbamoyl] ethyl-phenylmethanecarbamate] |  |  | < 4.70 | < 4.70 | 9.58 |  |  | 
N=C(N)NCCC[C@H](NC(=O)[C@H](CCC(=O)OCc1ccccc1)NC(=O)OCc1ccccc1)C(=O)c1nc2ccccc2s1 [MF1169, benzyl (S)-4-[benzyl(oxycarbonylamino)]-4-[N-(S)-1-[(1,3-benzothiazol-2-yl)carbonyl]-4-guanidinobutylcarbamoyl] butyrate] |  |  | 6.54 | < 4.70 | 7.13 |  |  | 
N=C(N)NCCC[C@H](NC(=O)[C@@H](NC(=O)OCc1ccccc1)c1cccs1)C(=O)c1nc2ccccc2s1 [MF1177, (R)-[N-(S)-1-[(1,3-benzothiazol-2-yl)carbonyl]-4-guanidinobutylcarbamoyl] (2-thienyl)methyl-phenylmethanecarbamate] |  |  | 7.43 | 8.22 | 9.68 |  |  | 
N=C(N)NCCC[C@H](NC(=O)[C@H](Cc1cccs1)NC(=O)OCC1c2ccccc2-c2ccccc21)C(=O)c1nc2ccccc2s1 [MF1184, (S)-1-[N-(S)-1-[(1,3-benzothiazol-2-yl)carbonyl]-4-guanidinobutylcarbamoyl]-2-(2-thienyl)ethyl (9H-fluoren-9-yl)methanecarbamate] |  |  | 7.23 | 6.93 | 9.33 |  |  | 
CC(=O)N[C@@H](CO)C(=O)NCc1cccc(CC(=O)N[C@@H](CC(C)C)C(=O)N[C@H](CCCNC(=N)N)C(=O)c2nc3ccccc3s2)c1 [MM1132-1, N-[(R)-1-[(1,3-benzothiazol-2-yl)carbonyl]-4-guanidinobutyl](S)-2-{[(m-{[(S)-2-acetylamino-3-hydroxypropionylamino]methyl}phenyl)methyl]carbonylamino}-4-methylvaleramide] |  | 5.49 | 6.38 | 8.72 |  |  |  | 
CCC(C)[C@H](NC(C)=O)C(=O)N[C@@H](CCSC)C(=O)N[C@@H](Cc1ccccc1)C(=O)N[C@H](CCCNC(=N)N)C(=O)c1nc2ccccc2s1 (stereo partly drawn) [MM4027-1, N-[(S)-3-(methylthio)-1-[N-(S)-1-[N-(R)-1-[(1,3-benzothiazol-2-yl)carbonyl]-4-guanidinobutylcarbamoyl]-2-phenylethylcarbamoyl]propyl](2S)-2-acetylamino-3-methylvaleramide] |  | 6.63 |  |  | 8.25 |  |  | 
CCC(C)[C@H](NC(C)=O)C(=O)N[C@@H](CCSC)C(=O)N[C@@H](Cc1ccccc1)C(=O)N[C@@H](CCCNC(=N)N)C(=O)c1nc2ccccc2s1 (stereo partly drawn) [MM4027-2, N-[(S)-3-(methylthio)-1-[N-(S)-1-[N-(S)-1-[(1,3-benzothiazol-2-yl)carbonyl]-4-guanidinobutylcarbamoyl]-2-phenylethylcarbamoyl]propyl](2S)-2-acetylamino-3-methylvaleramide] |  |  |  | 8.88 | 8.53 | 9.29 |  | 
CCC(C)[C@H](NC(C)=O)C(=O)N[C@H](Cc1cc2ccccc2[nH]1)C(=O)N[C@@H](Cc1ccccc1)C(=O)N[C@@H](CCCNC(=N)N)C(=O)c1nc2ccccc2s1 (stereo partly drawn) [MM4038, N-[(R)-2-(2-indolyl)-1-[N-(S)-1-[N-(S)-1-[(1,3-benzothiazol-2-yl)carbonyl]-4-guanidinobutylcarbamoyl]-2-phenylethylcarbamoy1]ethyl](2S)-2-acetylamino-3-methylvaleramide] |  | 7.18 |  | 7.91 | 10.40 |  |  | 
N=C(N)NCCC[C@H](NC(=O)[C@H](Cc1ccccc1)NC(=O)[C@H](CCC(N)=O)NC(=O)OCc1ccccc1)C(=O)c1nc2ccccc2s1 [ZFH9141] |  |  | 8.99 | 8.90 | 9.38 |  |  | 
